Experimental data published in patent US7947312B2, “Method of preparation and composition of a water soluble extract of the bioactive component of the plant species Uncaria for enhancing immune, anti-inflammatory, anti-tumor and DNA repair processes of warm blooded animals” (priority 2002, dated 2011).
Counter-ions that a name gives are not always drawn. Like-named read-outs stand apart in the source and are kept apart here.

Key:
HL-60 W6899 cells = assay: HL-60 bioassay, microculture 5 days, clonogenicity estimated by MTT assay (Table 1); assay type: cell-based, human; settings: Homo sapiens, HL-60, parameters are approximations
Experimental: An assay of biological activity of C-MED-100®'s active ingredient is prepared as follows: HL-60 […] cells are exposed in microculture at 5000 cells per well (96-well plates) for 5 days at 37 ? C. in a CO2 incubator. After incubation, the cells are washed with saline and clonogenicity estimated by MTT assay.

Jurkat T cells [1] = assay: Jurkat T cell death and apoptosis (Annexin V / 7AAD); assay type: cell-based, human; settings: 24 hours, concentrations inhibiting NF-κB
Experimental: FIG. 5A illustrates Jurkat T that are cells transfected with a NF-κB reporter construct were pre-cultured with various concentrations of QA or C-MED-100® for two hours. PMA (50 ng/ml) and ionomycin (1 μM) were thereafter added and the cells incubated for another six hours. The mean induction of luciferase activity in triplicate cultures from one representative experiment out of four are shown (left panel). QA induced no cell death or apoptosis in Jurkat T cells at concentrations which inhibited NF-κB activity. Jurkat T cells were incubated with various concentrations of QA for 24 hours and thereafter stained with Annexin V and 7AAD before analysis by flow cytometry. […]
Cell cultures: Raji human Burkitt's lymphoma (CCL-86), Jurkat human acute T-cell leukemia (TIB-152), 70Z/3 mouse pre-B lymphocyte cell line (TIB-158), or mouse spleen cells were used in the experiments. […] The number of Raji cells in duplicate cultures were determined with a Coulter Z1 cell counter (Beckman Coulter Inc, Fullerton, Calif., USA) three times each. The number of viable and dead cells were determined using trypan blue exclusion, by counting three independent samples from duplicate cultures. […] Proliferation was detected by measuring thymidine incorporation after a 4 hours pulse with 1 μCi ^3[H]-thymidine (Amersham Pharmacia).

Jurkat T cells [2] = assay: Jurkat T cell proliferation (data not shown); assay type: cell-based, human
[3] = system: NF-κB dependent Igκ-chain expression in 70Z/3 cells; assay: LPS-induced Igκ-chain expression in 70Z/3 cells (flow cytometry, 7AAD); assay type: cell-based
Experimental: FIG. 5B illustrates 70Z/3 cells (2×10^5) that were pretreated for 4 h with C-MED-100® or QA before activation for 20 h with LPS (25 μg/ml). The cells were thereafter stained with 7AAD and Igκ-antibodies and analyzed by flow cytometry. The results are mean Igκ-positive cells±S.D. (left panel) and mean 7AAD negative cells±S.D. (right panel) of duplicate cultures from one representative experiment out of two performed.
(§1) Cell cultures: Raji human Burkitt's lymphoma (CCL-86), Jurkat human acute T-cell leukemia (TIB-152), 70Z/3 mouse pre-B lymphocyte cell line (TIB-158), or mouse spleen cells were used in the experiments. The cells were cultured in RPMI medium (Life Technologies) supplemented with 10% FCS, 10 mM HEPES buffer, antibiotics, 50 μM 2-mercaptoethanol and 1 mM sodium pyruvate (all supplements from Life Technologies) at 37° C., 5% CO2. The number of Raji cells in duplicate cultures were determined with a Coulter Z1 cell counter (Beckman Coulter Inc, Fullerton, Calif., USA) three times each. The number of viable and dead cells were determined using trypan blue exclusion, by counting three independent samples from duplicate cultures. […] Proliferation was detected by measuring thymidine incorporation after a 4 hours pulse with 1 μCi ^3[H]-thymidine (Amersham Pharmacia).

[4] = system: mouse spleen cells activated with Con A or LPS; assay: Proliferation of mitogen-stimulated mouse spleen cells (3[H]-thymidine incorporation); assay type: cell-based; settings: Con A 2.5 μg/ml or LPS 10 μg/ml, 48 hours
Experimental: FIG. 4A illustrates spleen cells (2×10^5) that were activated with Con A (left; 2.5 μg/ml) or LPS (right; 10 μg/ml) in the presence of indicated concentrations of C-MED-100®, QAA or QA. Proliferation was assayed after 48 hours by ^3[H]-thymidine incorporation in triplicate cultures. Results from one representative experiment out of three are presented as mean values±S.D.
as §1

Compound	IC50 (HL-60 W6899 cells; after 1% aqueous ammonia, read-out: Bioassay after 1% aqueous ammonia IC50 HL-60 cells)	IC50 (HL-60 W6899 cells; read-out: Bioassay efficacy using IC50 in HL-60 cells)	cell death in Jurkat T cells (Jurkat T cells [1])	proliferation of Jurkat T cells (Jurkat T cells [2])	cell death in 70Z/3 cells (7AAD) [3]	LPS-induced Igκ-chain expression ([3]; 70Z/3 cells, 4 h pretreatment, LPS 25 μg/ml 20 h)	proliferation of mitogen-stimulated mouse lymphocytes [4]
O=C(O)C1(O)CC(O)C(O)C(O)C1 (stereo not shown) [QA, 1,3,4,5-tetrahydroxy-cyclohexanecarboxylic acid]	> 3000 µg/mL	> 3000 µg/mL	did not induce cell death	did not inhibit proliferation	without causing cell death	inhibited Igκ-chain expression to a similar extent	–
O=C(O)[C@]1(O)C[C@@H](O)[C@@H](O)[C@H](O)C1 [QAA, quinic acid ammonium salt]	–	–	–	–	–	–	inhibited cell proliferation in a dose dependent manner
